Reference: US20250144131A1, “POLYSACCHARIDE COMPOUND WITH A DEFINED MOLECULAR STRUCTURE FOR THE TREATMENT OF PULMONARY FIBROSIS” (SHENZHEN YANDAI INVESTMENT CO., LTD, priority 2023, published 2025)

Assays:
bone marrow cells = test system: bone marrow cells; design: species or system C57 mice; conditions: mouse, in vivo, 130 mg/kg
Experimental: (§1) LLC cells in logarithmic growth phase at 1×10^7/mL were inoculated at 0.2 mL into the right axilla of 10 purchased normal male C57 mice. Tumor growth was monitored, and tumor-bearing mice were prepared. Once the tumor volume in tumor-bearing mice exceeded 200 mm^3, the tumor tissue was aseptically harvested to prepare a tissue cell suspension. This was mixed at a 1:1 (V:V) ratio with culture medium to create a tumor tissue homogenate. This homogenate was injected into the right axilla of 60 male C57 mice at 0.2 mL per mouse. When the tumor volume in these tumor-bearing mice exceeded 100 mm^3, mice with well-grown tumors without ulceration were selected and randomized into groups based on tumor volume as follows: model control group, cisplatin group (4 mg/kg), Kanglaite soft capsule group (1,404 mg/kg), cisplatin+Kanglaite soft capsule group (4+1,404 mg/kg), cisplatin+GLP-4 low-dose group (4+130 mg/kg), and cisplatin+GLP-4 high-dose group (4+1,170 mg/kg), with 8 mice per group. Additionally, 8 mice were selected as a normal control group. The cisplatin group received intraperitoneal injections of cisplatin, and the other groups were administered their respective drug solutions by gavage (20 mL/kg) or intraperitoneal injection (10 mL/kg), once daily for 27 consecutive days. After the last dose, blood was collected from the orbital plexus to test blood WBC, RBC, liver and kidney function indicators (ALT, AST, BUN, CRE), and CD3^+, CD4^+, and CD8^+ levels. Bone marrow smears were examined, and spleens, thymuses, and tumors were weighed. Histopathological examinations were conducted on the tumor, spleen, stomach, and kidneys.

[1] = Mortality and body weight of orthotopic H22-bearing mice; conditions: Kanglaite soft capsule 1404 mg/kg
Source text: Liver cancer (H22) cells, labeled with Luc fluorescent marker at a concentration of 1×10^7 cells/mL, were initially inoculated into the peritoneal cavity of 8 male C57 mice. After the development of ascites, the ascitic fluid was aseptically extracted, washed with HBSS buffer, centrifuged to discard the supernatant, and stained with Trypan Blue, and cells in the ascitic fluid were counted under a microscope. The cell concentration was adjusted to […] with HBSS buffer and inoculated into the right hepatic region of 51 male C57 mice, at a volume of 10 μL per mouse, to prepare the orthotopic tumor-bearing mice. One week later, the liver tumor formation in mice was detected using a small animal in vivo imaging system. Based on tumor size, the mice were randomized into groups: model control group, cisplatin group (4 mg/kg), Kanglaite soft capsule group (1,404 mg/kg), cisplatin+Kanglaite soft capsule group (4+1,404 mg/kg), cisplatin+GLP-4 low-dose group (4+130 mg/kg), and cisplatin+GLP-4 high-dose group (4+1,170 mg/kg), with 6 mice per group. An additional 6 mice served as the normal control group. The normal control group and the model control group were administered pure water by oral gavage. The chemotherapy group received intraperitoneal injections of cisplatin, and the other groups were administered their respective drug solutions by oral gavage (20 mL/kg) or intraperitoneal injection (10 mL/kg), once daily for 14 consecutive days. After the last dose, blood was collected from the orbital plexus to test blood WBC, RBC, liver and kidney function indicators (ALT, AST, BUN, CRE), and CD3^+/CD4^+, CD3^+/CD8^+ ratios. The spleen, thymus, and tumors were weighed to calculate organ coefficients.
Animal survival and general condition: Weight was recorded weekly, along with any deaths among the animals.

[2] = test system: CD4+ and CD8+ lymphocyte subtypes; test: Blood CD3+/CD4+ and CD3+/CD8+ by flow cytometry in LLC-bearing mice; assay type: in vivo, C57 mice; conditions: blood after last dose, cisplatin 4, Kanglaite 1404, GLP-4 low-dose 130 mg/kg
Experimental: as §1, with “After the last dose, blood was collected from the orbital plexus to test blood WBC, RBC, liver and kidney function indicators (ALT, AST, BUN, CRE), and CD3^+, CD4^+, and CD8^+ levels. Bone marrow smears were examined, and spleens, thymuses, and tumors were weighed. Histopathological examinations were conducted on the tumor, spleen, stomach, and kidneys.” left out

N.N.[Cl][Pt][Cl] [Cisplatin, cisplatin]
Lymphatic system (bone marrow cells): 15.75 ± 3.44 | Mononuclear cell system (bone marrow cells): 2.88 ± 0.55 | Myeloid/erythroid ratio (bone marrow cells): 3.68 ± 1.68 | Other cells (bone marrow cells): 2.50 ± 2.01 | Red cell system (bone marrow cells): 22.75 ± 5.67 | Number of deaths ([1]; 6 per group, cisplatin 4 mg/kg): 3 | Number of surviving animals ([1]; 6 per group, cisplatin 4 mg/kg): 3 | Weight ([1]; W0, cisplatin 4 mg/kg): 18.5 ± 1.3 g | Weight ([1]; W1, cisplatin 4 mg/kg): 16.9 ± 1.8 ^ g | Weight ([1]; W2, cisplatin 4 mg/kg): 15.1 ± 1.6 g | Mortality rate ([1]; cisplatin 4 mg/kg): 50.0% | CD3+/CD4+ [2]: 0.093 ± 0.025 | CD3+/CD8+ [2]: 1.571 ± 0.406
